Tested on: Acinetobacter baumannii ATCC17961
Assay: 90% Growth Inhibitory Concentration (IC90) determination, antimicrobial susceptibility testing
Format: cell-based
Conditions: Acinetobacter baumannii, ATCC17961, 16 h, Acinetobacter baumannii ATCC17961; Iso-Sensitest broth; growth by optical density at 600 nm over 16h; concentration inhibiting 90% of the growth; read-out: ATCC 17961 IC90
Method in brief: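 Broth microdilution in Iso-Sensitest medium, compounds twofold diluted (e.g. 50–0.097 μM final), inoculum ~5×10^(5) CFU/ml, 35±2° C. OD600 was read every 20 min over 16 h. IC90 was derived from growth inhibition during logarithmic growth.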

SMILES	IC90 [nM]
Cn1c(-c2cn(-c3ccc(N)nc3)nc2C(F)(F)F)cnc1C(=O)Nc1ccc(C(=O)N2CCN(C(=O)C3CCNCC3)CC2)c(Cl)c1 [Example Z10, 5-[1-(6-amino-3-pyridyl)-3-(trifluoromethyl)pyrazol-4-yl]-N-[3-chloro-4-(4-isonipecotoylpiperazine-1-carbonyl)phenyl]-1-methyl-imidazole-2-carboxamide]	330
Cn1c(-c2cn(-c3ccc(N)cn3)nc2C(F)(F)F)cnc1C(=O)Nc1ccc(C(=O)N[C@H]2C[C@@H](N)C2)c(Cl)c1 [Example Z11, N-[4-[cis-(3-aminocyclobutyl)carbamoyl]-3-chloro-phenyl]-5-[1-(5-amino-2-pyridyl)-3-(trifluoromethyl)pyrazol-4-yl]-1-methyl-imidazole-2-carboxamide]	950
Cn1c(-c2cn(-c3ccc(N)cn3)nc2C(F)(F)F)cnc1C(=O)Nc1ccc(C(=O)N2CC3CNCC3C2)c(Cl)c1 (stereo not drawn) [Example Z12, N-[4-(2,3,3a,4,6,6a-hexahydro-1H-pyrrolo[3,4-c]pyrrole-5-carbonyl)-3-chloro-phenyl]-5-[1-(5-amino-2-pyridyl)-3-(trifluoromethyl)pyrazol-4-yl]-1-methyl-imidazole-2-carboxamide]	930
CN(C(=O)c1ccc(NC(=O)c2ncc(-c3cn(-c4ccc(N)cn4)nc3C(F)(F)F)n2C)cc1Cl)C1CCNCC1 [Example Z13, 5-[1-(5-amino-2-pyridyl)-3-(trifluoromethyl)pyrazol-4-yl]-N-[3-chloro-4-[methyl(4-piperidyl)carbamoyl]phenyl]-1-methyl-imidazole-2-carboxamide]	420
Cn1c(-c2cn(-c3ccc(N)cn3)nc2C(F)(F)F)cnc1C(=O)Nc1ccc(C(=O)N2CCC(CN)CC2)c(Cl)c1 [Example Z14, N-[4-[4-(aminomethyl)piperidine-1-carbonyl]-3-chloro-phenyl]-5-[1-(5-amino-2-pyridyl)-3-(trifluoromethyl)pyrazol-4-yl]-1-methyl-imidazole-2-carboxamide]	850
Cn1c(-c2cn(-c3ccc(N)cn3)nc2C(F)(F)F)cnc1C(=O)Nc1ccc(C(=O)NC2CC(CN)(CCl)C2)c(Cl)c1 (stereo not drawn) [Example Z15, N-[4-[[3-(aminomethyl)-3-(chloromethyl)cyclobutyl]carbamoyl]-3-chloro-phenyl]-5-[1-(5-amino-2-pyridyl)-3-(trifluoromethyl)pyrazol-4-yl]-1-methyl-imidazole-2-carboxamide]	910
Cn1c(-c2cn(-c3ccc(N)cn3)nc2C(F)(F)F)cnc1C(=O)Nc1ccc(C(=O)N[C@H]2CC[C@H](N)C2)c(Cl)c1 [Example Z16]	860
Cn1c(-c2cn(-c3ccc(N)cn3)nc2C(F)(F)F)cnc1C(=O)Nc1ccc(C(=O)NCC2CC2N)c(Cl)c1 (stereo not drawn) [Example Z18, N-[4-[(2-aminocyclopropyl)methylcarbamoyl]-3-chloro-phenyl]-5-[1-(5-amino-2-pyridyl)-3-(trifluoromethyl)pyrazol-4-yl]-1-methyl-imidazole-2-carboxamide]	1590
Cn1c(-c2cn(-c3ccc(N)cn3)nc2C(F)(F)F)cnc1C(=O)Nc1ccc(C(=O)N[C@H]2C[C@H](N)C2)c(Cl)c1 [Example Z19, N-[4-[trans-(3-aminocyclobutyl)carbamoyl]-3-chloro-phenyl]-5-[1-(5-amino-2-pyridyl)-3-(trifluoromethyl)pyrazol-4-yl]-1-methyl-imidazole-2-carboxamide]	950
Cn1c(-c2cn(-c3ccc(N)cn3)nc2C(F)(F)F)cnc1C(=O)Nc1ccc(C(=O)N2CCC(N)CC2)c(Cl)c1 [Example Z20, N-[4-(4-aminopiperidine-1-carbonyl)-3-chloro-phenyl]-5-[1-(5-amino-2-pyridyl)-3-(trifluoromethyl)pyrazol-4-yl]-1-methyl-imidazole-2-carboxamide]	330
Cn1c(-c2cn(-c3ccc(N)cn3)nc2C(F)(F)F)cnc1C(=O)Nc1ccc(C(=O)NCCOCCN)c(Cl)c1 [Example Z21, N-[4-[2-(2-aminoethoxy)ethylcarbamoyl]-3-chloro-phenyl]-5-[1-(5-amino-2-pyridyl)-3-(trifluoromethyl)pyrazol-4-yl]-1-methyl-imidazole-2-carboxamide]	670
Cn1c(-c2cn(-c3ccc(N)cn3)nc2C(F)(F)F)cnc1C(=O)Nc1ccc(C(=O)N2CCC3(CC2)CCN(C(=O)[C@@H]2C[C@@H](O)CN2)C3)c(Cl)c1 [Example Z22, 5-[1-(5-amino-2-pyridyl)-3-(trifluoromethyl)pyrazol-4-yl]-N-[3-chloro-4-[2-[(2S,4R)-4-hydroxyprolyl]-2,8-diazaspiro[4.5]decane-8-carbonyl]phenyl]-1-methyl-imidazole-2-carboxamide]	510
Cn1c(-c2cn(-c3ccc(N)cn3)nc2C(F)(F)F)cnc1C(=O)Nc1ccc(C(=O)N[C@@H]2CC[C@@H](NC(=O)[C@@H]3C[C@@H](O)CN3)C2)c(Cl)c1 [Example Z23, 5-[1-(5-amino-2-pyridyl)-3-(trifluoromethyl)pyrazol-4-yl]-N-[3-chloro-4-[[(1R,3R)-3-[[(2S,4R)-4-hydroxyprolyl]amino]cyclopentyl]carbamoyl]phenyl]-1-methyl-imidazole-2-carboxamide]	360
Cn1c(-c2cn(-c3ccc(N)cn3)nc2C(F)(F)F)cnc1C(=O)Nc1ccc(C(=O)N2CCC(NC(=O)[C@@H]3C[C@@H](O)CN3)CC2)c(Cl)c1 [Example Z24, 5-[1-(5-amino-2-pyridyl)-3-(trifluoromethyl)pyrazol-4-yl]-N-[3-chloro-4-[4-[[(2S,4R)-4-hydroxyprolyl]amino]piperidine-1-carbonyl]phenyl]-1-methyl-imidazole-2-carboxamide]	460
Cn1c(-c2cn(-c3ccc(N)cn3)nc2C(F)(F)F)cnc1C(=O)Nc1ccc(C(=O)N2CC3(CC(NC(=O)[C@@H]4C[C@@H](O)CN4)C3)C2)c(Cl)c1 [Example Z25, 5-[1-(5-amino-2-pyridyl)-3-(trifluoromethyl)pyrazol-4-yl]-N-[3-chloro-4-[6-[[(2S,4R)-4-hydroxyprolyl]amino]-2-azaspiro[3.3]heptane-2-carbonyl]phenyl]-1-methyl-imidazole-2-carboxamide]	540
Cn1c(-c2cn(-c3ccc(N)cn3)nc2C(F)(F)F)cnc1C(=O)Nc1ccc(C(=O)NCCCNC(=O)[C@@H]2C[C@@H](O)CN2)c(Cl)c1 [Example Z26, 5-[1-(5-amino-2-pyridyl)-3-(trifluoromethyl)pyrazol-4-yl]-N-[3-chloro-4-[3-[[(2S,4R)-4-hydroxyprolyl]amino]propylcarbamoyl]phenyl]-1-methyl-imidazole-2-carboxamide]	690
Cn1c(-c2cn(-c3ccc(N)cn3)nc2C(F)(F)F)cnc1C(=O)Nc1ccc(C(=O)NC2CN(C(=O)[C@@H]3C[C@@H](O)CN3)CC2CO)c(Cl)c1 (stereo partly drawn) [Example Z27, 5-[1-(5-amino-2-pyridyl)-3-(trifluoromethyl)pyrazol-4-yl]-N-[3-chloro-4-[[1-[(2S,4R)-4-hydroxyprolyl]-4-methylol-pyrrolidin-3-yl]carbamoyl]phenyl]-1-methyl-imidazole-2-carboxamide]	1180
Cn1c(-c2cn(-c3ccc(N)cn3)nc2C(F)(F)F)cnc1C(=O)Nc1ccc(C(=O)NCCCCCN)c(Cl)c1 [Example Z28, N-[4-(5-aminopentylcarbamoyl)-3-chloro-phenyl]-5-[1-(5-amino-2-pyridyl)-3-(trifluoromethyl)pyrazol-4-yl]-1-methyl-imidazole-2-carboxamide]	360
Cn1c(-c2cn(-c3cnc(N)cn3)nc2C(F)(F)F)cnc1C(=O)Nc1ccc(C(=O)N2CCN(C(=O)C3CCNCC3)CC2)c(Cl)c1 [Example Z29, 5-[1-(5-aminopyrazin-2-yl)-3-(trifluoromethyl)pyrazol-4-yl]-N-[3-chloro-4-(4-isonipecotoylpiperazine-1-carbonyl)phenyl]-1-methyl-imidazole-2-carboxamide]	600
Cn1c(-c2cn(-c3ccc(Cl)nc3)nc2C(F)(F)F)cnc1C(=O)Nc1ccc(C(=O)N2CCN(C(=O)[C@@H]3C[C@@H](O)CN3)CC2)c(Cl)c1 [Example Z30, N-[3-chloro-4-[4-[(2S,4R)-4-hydroxyprolyl]piperazine-1-carbonyl]phenyl]-5-[1-(6-chloro-3-pyridyl)-3-(trifluoromethyl)pyrazol-4-yl]-1-methyl-imidazole-2-carboxamide]	780
COc1cccc(-n2cc(-c3cnc(C(=O)Nc4ccc(C(=O)N5CCN(C(=O)C6CCNCC6)CC5)c(Cl)c4)n3C)c(C(F)(F)F)n2)n1 [Example Z31, N-[3-chloro-4-(4-isonipecotoylpiperazine-1-carbonyl)phenyl]-5-[1-(6-methoxy-2-pyridyl)-3-(trifluoromethyl)pyrazol-4-yl]-1-methyl-imidazole-2-carboxamide]	860
Cn1c(-c2cn(-c3ccc(N)cn3)nc2C(F)(F)F)cnc1C(=O)Nc1ccc(C(=O)N2CCNCC2)c(Cl)c1 [Example Z32, 5-[1-(5-amino-2-pyridyl)-3-(trifluoromethyl)pyrazol-4-yl]-N-[3-chloro-4-(piperazine-1-carbonyl)phenyl]-1-methyl-imidazole-2-carboxamide]	390
Cn1c(-c2cn(-c3ccc(N)cn3)nc2C(F)(F)F)cnc1C(=O)Nc1ccc(C(=O)NCCNC(=O)[C@@H]2C[C@@H](O)CN2)c(Cl)c1 [Example Z33, 5-[1-(5-amino-2-pyridyl)-3-(trifluoromethyl)pyrazol-4-yl]-N-[3-chloro-4-[2-[[(2S,4R)-4-hydroxyprolyl]amino]ethylcarbamoyl]phenyl]-1-methyl-imidazole-2-carboxamide]	1220

Same assay, conditions: Acinetobacter baumannii, ATCC17961, 16 h, read-out: ATCC 17961 IC90

SMILES	IC90 [nM]
Cn1c(-c2cn(-c3ccc(N)cn3)nc2C(F)(F)F)cnc1C(=O)Nc1ccc(C(=O)NCCN)c(Cl)c1 [Example Z17, N-[4-(2-aminoethylcarbamoyl)-3-chloro-phenyl]-5-[1-(5-amino-2-pyridyl)-3-(trifluoromethyl)pyrazol-4-yl]-1-methyl-imidazole-2-carboxamide]	990

Reference: patent US12679824B2 (Hoffmann-La Roche Inc., priority 2020, dated 2026)
